Patent publication US11008323B2, “Substituted tricyclic 1,4-benzodiazepinone derivatives as allosteric modulators of group II metabotropic glutamate receptors” (Domain Therapeutics, priority 2015, dated 2021)

Columns and labels:
human mGluR3 (hmGluR3) = molecular target: T1, human mGluR3 (hmGluR3) (Homo sapiens, UniProt Q14832); assay: Human mGluR3 positive allosteric modulator evaluation using Ca++ functional assay; format: cell-based; settings: hmGluR3 transiently over-expressed in HEK-293 cells; stimulated by EC50 glutamate concentration; intracellular Ca2+ (Fluo4AM, FLIPR Tetra)
T1 construct: expressed in transfected cells; host or cells: HEK-293 cells, transient co-transfection by electroporation
Procedure, shortened: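 HEK-293 cells transiently co-expressing hmGluR3, a chimeric G protein and two glutamate transporters; Fluo4 calcium read on FLIPR. Compound alone for 10 min (agonist), then EC50 glutamate for 3 min (PAM); 20-point curves gave EC50, duplicate, two independent runs.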

T1 sequence (Q14832 23-879): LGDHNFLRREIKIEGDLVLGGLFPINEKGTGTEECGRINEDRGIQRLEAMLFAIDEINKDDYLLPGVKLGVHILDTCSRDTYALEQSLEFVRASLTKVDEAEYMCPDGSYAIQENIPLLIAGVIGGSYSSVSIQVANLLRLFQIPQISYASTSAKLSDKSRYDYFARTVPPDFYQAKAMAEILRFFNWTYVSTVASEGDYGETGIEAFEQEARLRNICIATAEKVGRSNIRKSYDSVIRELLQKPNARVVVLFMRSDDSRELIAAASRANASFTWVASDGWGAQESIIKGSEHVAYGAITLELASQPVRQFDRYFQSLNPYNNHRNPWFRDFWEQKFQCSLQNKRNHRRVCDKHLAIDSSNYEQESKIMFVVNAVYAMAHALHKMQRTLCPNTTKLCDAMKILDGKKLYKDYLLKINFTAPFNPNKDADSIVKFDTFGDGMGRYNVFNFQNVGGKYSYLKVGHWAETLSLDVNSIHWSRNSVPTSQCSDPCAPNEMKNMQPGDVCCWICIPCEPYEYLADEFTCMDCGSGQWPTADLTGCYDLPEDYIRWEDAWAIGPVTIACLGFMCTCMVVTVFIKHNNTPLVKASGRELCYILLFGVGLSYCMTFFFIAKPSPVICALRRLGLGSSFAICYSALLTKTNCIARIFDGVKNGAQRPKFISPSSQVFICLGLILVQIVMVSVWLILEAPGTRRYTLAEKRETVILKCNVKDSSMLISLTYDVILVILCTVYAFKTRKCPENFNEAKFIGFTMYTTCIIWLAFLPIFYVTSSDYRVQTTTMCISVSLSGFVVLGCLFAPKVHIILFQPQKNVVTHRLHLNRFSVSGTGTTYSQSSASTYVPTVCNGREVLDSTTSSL

SMILES	EC50 (human mGluR3 (hmGluR3)) [nM]	melting point [°C]
Cc1ccc2c(c1)C1(CC1)N(C)C(=O)c1cccn1-2 [Example 87, 5,8-Dimethyl-spiro[benzo[f]pyrrolo[1,2-a][1,4]diazepine-6,1′-cyclopropan]-4(5H)-one]	> 1000	143 to 150
CN1C(=O)c2cc(-c3ccccc3)nn2-c2cc(C#N)ccc2C12CC2 [Example 137, 9-Cyano-5-methyl-2-phenyl-spiro[benzo[f]pyrazolo[1,5-a][1,4]diazepine-6,1′-cyclopropan]-4(5H)-one]	> 1000	196 to 200
CN1C(=O)c2cc(-c3ccccc3)nn2-c2cc(-c3ccc(N)cc3)ccc2C12CC2 [Example 124, 9-(4-Amino-phenyl)-5-methyl-2-phenyl-spiro[benzo[f]pyrazolo[1,5-a][1,4]diazepine-6,1′-cyclopropan]-4(5H)-one]	> 1000	195 to 209
Cc1cccc2c1C1(CC1)N(C)C(=O)c1cccn1-2 [Example 89, 5,7-Dimethyl-spiro[benzo[f]pyrrolo[1,2-a][1,4]diazepine-6,1′-cyclopropan]-4(5H)-one]	> 1000	126 to 134
CN1C(=O)c2ccc(-c3ccnn3C)n2-c2cc(-c3ccc(F)cn3)ccc2C12CC2 [Example 86, 5-Methyl-1-(2-methyl-2H-pyrazol-3-yl)9-(5-fluoropyridin-2-yl)-spiro[benzo[f]pyrrolo[1,2-a][1,4]diazepine-6,1′-cyclopropan]-4(5H)-one]	> 1000	143 to 166
CN1C(=O)c2cc(-c3ccccc3)nn2-c2cc(N3CCCC3)ccc2C12CC2 [Example 139, 5-Methyl-2-phenyl-9-(pyrrolidin-1-yl)-spiro[benzo[f]pyrazolo[1,5-a][1,4]diazepine-6,1′-cyclopropan]-4(5H)-one]	> 1000	226 to 230
CN1C(=O)c2cccn2-c2c(C#N)cccc2C12CC2 [Example 91, 10-Cyano-5-methyl-spiro[benzo[f]pyrrolo[1,2-a][1,4]diazepine-6,1′-cyclopropan]-4(5H)-one]	> 1000	250
CN1C(=O)c2cccn2-c2cc(-c3ncccc3F)ccc2C12CC2 [Example 66, 5-Methyl-9-(3-fluoropyridin-2-yl)-spiro[benzo[f]pyrrolo[1,2-a][1,4]diazepine-6,1′-cyclopropan]-4(5H)-one]	> 1000	102 to 118
CN1C(=O)c2cc(-c3ccccc3)cn2-c2cc(-c3cccnc3C(F)(F)F)ccc2C12CC2 [Example 100, 5-Methyl-2-phenyl-9-(2-trifluoromethyl-pyridin-3-yl)-spiro[benzo[f]pyrrolo[1,2-a][1,4]diazepine-6,1′-cyclopropan]-4(5H)-one]	> 1000	199 to 204
CN1C(=O)c2cc(-c3ccccc3)nn2-c2ccccc2C12CC2 [Example 138, 5-Methyl-2-phenyl-spiro[benzo[f]pyrazolo[1,5-a][1,4]diazepine-6,1′-cyclopropan]-4(5H)-one]	> 1000	212 to 218
CN1C(=O)c2cccn2-c2cc(-c3cccnc3C(C)(C)O)ccc2C12CC2 [Example 72, 5-Methyl-9-(2-(1-hydroxy-1-methyl-ethyl)-pyridin-3-yl)-spiro[benzo[f]pyrrolo[1,2-a][1,4]diazepine-6,1′-cyclopropan]-4(5H)-one]	> 1000	220 to 228
CN1C(=O)c2cccn2-c2cc(-c3cnccc3C(F)(F)F)ccc2C12CC2 [Example 37, 5-Methyl-9-(4-trifluoromethylpyridin-3-yl)-spiro[benzo[f]pyrrolo[1,2-a][1,4]diazepine-6,1′-cyclopropan]-4(5H)-one]	> 1000	67 to 78
CN1C(=O)c2cc(-c3ccccc3)nn2-c2cc(-c3cnco3)ccc2C12CC2 [Example 132, 9-(Oxazol-5-yl)-5-methyl-2-phenyl-spiro[benzo[f]pyrazolo[1,5-a][1,4]diazepine-6,1′-cyclopropan]-4(5H)-one]	100 to 1000	214 to 220
Cc1ncsc1-c1ccc2c(c1)-n1cccc1C(=O)N(C)C21CC1 [Example 50, 5-Methyl-9-(4-methylthiazol-5-yl)-spiro[benzo[f]pyrrolo[1,2-a][1,4]diazepine-6,1′-cyclopropan]-4(5H)-one]	100 to 1000	205 to 212

The next lines start with the values.

EC50 (human mGluR3 (hmGluR3)) [nM]	melting point [°C]	SMILES
100 to 1000	130 to 138	CN1C(=O)c2cccn2-c2cc(C=CC#N)ccc2C12CC2 (mixture of isomers) [Example 52, 5-Methyl-9-actylonitrile-spiro[benzo[f]pyrrolo[1,2-a][1,4]diazepine-6,1′-cyclopropan]-4(5H)-one]
100 to 1000	185 to 190	CN1C(=O)c2cc(-c3ccccc3)nn2-c2cc(-c3cccc(C#N)c3)ccc2C12CC2 [Example 129, 9-(3-Cyano-phenyl)-5-methyl-2-phenyl-spiro[benzo[f]pyrazolo[1,5-a][1,4]diazepine-6,1′-cyclopropan]-4(5H)-one]
< 100	220 to 225	CN1C(=O)c2cccn2-c2cc(-c3ccc(F)nc3)cc(F)c2C12CC2 [Example 74, 7-Fluoro-5-methyl-9-(6-fluoro-pyridin-3-yl)-spiro[benzo[f]pyrrolo[1,2-a][1,4]diazepine-6,1′-cyclopropan]-4(5H)-one]
100 to 1000	214 to 220	CN1C(=O)c2cccn2-c2cc(-c3ccnn3C)ccc2C12CC2 [Example 30, 5-Methyl-9-(1-methyl-pyrazol-5-yl)-spiro[benzo[f]pyrrolo[1,2-a][1,4]diazepine-6,1′-cyclopropan]-4(5H)-one]
< 100	160 to 175	CN1C(=O)c2cc(-c3nnco3)cn2-c2cc(-c3ccc(F)nc3)ccc2C12CC2 [Example 187]
100 to 1000	130 to 141	CN1C(=O)c2cc(-c3ccccc3)cn2-c2cc(-c3cnccn3)ccc2C12CC2 [Example 108, 5-Methyl-2-phenyl-9-pyrazin-2-yl-spiro[benzo[f]pyrrolo[1,2-a][1,4]diazepine-6,1′-cyclopropan]-4(5H)-one]
< 100	166 to 178	[2H]C([2H])([2H])N1C(=O)c2cccn2-c2cc(-c3ccc(F)nc3)ccc2C12CC2 [Example 55, 5-(Methyl-d3)-9-(6-fluoropyridin-3-yl)-spiro[benzo[f]pyrrolo[1,2-a][1,4]diazepine-6,1′-cyclopropan]-4(5H)-one]
100 to 1000	> 250	Cc1ncccc1-c1ccc2c(c1)-n1cc(C#N)cc1C(=O)N(C)C21CC1 [Example 153]
< 100	> 250	CN1C(=O)c2cc(-c3nnco3)cn2-c2cc(-c3cccc(C#N)c3)ccc2C12CC2 [Example 192]
< 100	138 to 142	[2H]C([2H])([2H])N1C(=O)c2cccn2-c2cc(-c3ccc(F)cn3)ccc2C12CC2 [Example 64, 5-(Methyl-d3)-9-(5-fluoropyridin-2-yl)-spiro[benzo[f]pyrrolo[1,2-a][1,4]diazepine-6,1′-cyclopropan]-4(5H)-one]
< 100	189 to 194	CN1C(=O)c2cccn2-c2cc(-c3cccc(C#N)c3)ccc2C12CC2 [Example 44, 5-Methyl-9-(3-cyanophenyl)-spiro[benzo[f]pyrrolo[1,2-a][1,4]diazepine-6,1′-cyclopropan]-4(5H)-one]
100 to 1000	75 to 83	CN1C(=O)c2cccn2-c2cc(-c3cnn(C)c3)ccc2C12CC2 [Example 29, 5-Methyl-9-(1-methyl-pyrazol-4-yl)-spiro[benzo[f]pyrrolo[1,2-a][1,4]diazepine-6,1′-cyclopropan]-4(5H)-one]
100 to 1000	218 to 224	CN1C(=O)c2cc(-c3ccccc3)nn2-c2cc(-c3cc[nH]n3)ccc2C12CC2 [Example 136, 9-(1H-pyrazol-3-yl)-5-methyl-2-phenyl-spiro[benzo[f]pyrazolo[1,5-a][1,4]diazepine-6,1′-cyclopropan]-4(5H)-one]
100 to 1000	> 250	COc1ccc(-c2ccc3c(c2)-n2nc(-c4ccccc4)cc2C(=O)N(C)C32CC2)cc1 [Example 128, 9-(4-Methoxy-phenyl)-5-methyl-2-phenyl-spiro[benzo[f]pyrazolo[1,5-a][1,4]diazepine-6,1′-cyclopropan]-4(5H)-one]
100 to 1000	150 to 154	COc1ccc(-c2ccc3c(c2)-n2cccc2C(=O)N(C)C32CC2)cc1OC [Example 39, 5-Methyl-9-(3,4-dimethoxy-phenyl)-spiro[benzo[f]pyrrolo[1,2-a][1,4]diazepine-6,1′-cyclopropan]-4(5H)-one]
100 to 1000	200 to 210	Cc1ncccc1-c1ccc2c(c1)-n1cccc1C(=O)N(C)C21CC1 [Example 20, 5-Methyl-9-(2-methyl-pyridin-3-yl)-spiro[benzo[f]pyrrolo[1,2-a][1,4]diazepine-6,1′-cyclopropan]-4(5H)-one]
100 to 1000	182 to 189	CN1C(=O)c2cc(-c3ccccc3)nn2-c2cc(-c3cccc(S(=O)(=O)N(C)C)c3)ccc2C12CC2 [Example 142, N,N-dimethyl-3-(5-methyl-4-oxo-2-phenyl-4,5-dihydrospiro[benzo[f]pyrazolo[1,5-a][1,4]diazepine-6,1′-cyclopropan]-9-yl)benzenesulfonamide]
< 100	> 250	Cc1ncccc1-c1ccc2c(c1)-n1cc(-c3nnco3)cc1C(=O)N(C)C21CC1 [Example 185]
